Measurements published in patent US6355799B1, “Substituted benzene compounds, process for their preparation, and herbicidal and defoliant compositions containing them” (ISK Americas Incorporated, priority 1997, dated 2002).

Assays:
Type in all cases: in vivo
[1] = test system: upland rice (Oryza sp., var. Tebonnet, RICE); test: Post-emerge test, crop safety; details: post-emerge, 14 days after application, rating scale 0-100
Summary of the method: (§1)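 Fourteen days after spraying, crop and weed injury was graded visually from 0, no effect, to 100, every plant dead. Test substances were dissolved in acetone and applied at 15–1000 g ai/ha with a flat-fan nozzle. Application was either pre-emergence, one day after sowing, or post-emergence at the 2–3 leaf stage.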

[2] = test system: field corn (Zea mays L., var. Dekalb 535, CORN); test: Post-emerge test, crop safety; details: post-emerge, 14 days after application, rating scale 0-100
Summary of the method: as §1

[3] = test system: ivyleaf morningglory (Ipomoea hederacea, IPOHE); test: Post-emerge test, greenhouse herbicide activity screening; details: post-emerge, 14 days after application, rating scale 0-100
Summary of the method: (§2)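 Visual ratings on a 0-100 scale (0 no damage, 100 all plants dead) were taken at 14 days after treatment. Rates of 15-1000 g ai/ha in acetone, 187 l/ha, were sprayed onto soil one day after planting (pre-emerge) or onto 2-3 leaf plants with 0.25% v/v surfactant (post-emerge).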

[4] = test system: sicklepod (Cassia obtusifolia, CASOB); test: as above; details: post-emerge, 14 days after application, rating scale 0-100
Summary of the method: as §2

[5] = test system: redroot pigweed (Amaranthus retroflexus, AMARE); test: as above; details: post-emerge, 14 days after application, rating scale 0-100
Summary of the method: as §2

[6] = test system: large crabgrass (Digitaria sanguinalis, DIGSA); test: as above; details: post-emerge, 14 days after application, rating scale 0-100
Summary of the method: as §2

[7] = test system: barnyardgrass (Echinochloa crus-galli, ECHCG); test: as above; details: post-emerge, 14 days after application, rating scale 0-100
Summary of the method: as §2

[8] = test system: green foxtail (Setaria viridis, SETVI); test: as above; details: post-emerge, 14 days after application, rating scale 0-100
Summary of the method: as §2

[9] = test system: johnsongrass (Sorghum halepense, SORHA); test: as above; details: post-emerge, 14 days after application, rating scale 0-100
Summary of the method: as §2

[10] = test system: velvetleaf (Abutilon theophrasti, ABUTH); test: as above; details: post-emerge, 14 days after application, rating scale 0-100
Summary of the method: as §2

[11] = test system: lambsquarters (Chenopodium album, CHEAL); test: as above; details: post-emerge, 14 days after application, rating scale 0-100
Summary of the method: as §2

[12] = test system: upland rice (Oryza sp., var. Tebonnet, RICE); test: Pre-emerge test, crop safety; details: pre-emerge, 14 days after application, scale 0-100
Summary of the method: (§3)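 Herbicidal damage is scored 0 (none) to 100 (complete plant death) two weeks after a simulated field spray. Rates span 15–1000 g ai/ha, delivered in acetone at 187 l/ha. For post-emergence treatments, plants have 2–3 leaves and the spray carries 0.25% v/v non-ionic surfactant.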

[13] = test system: field corn (Zea mays L., var. Dekalb 535, CORN); test: Pre-emerge test, crop safety; details: pre-emerge, 14 days after application, scale 0-100
Summary of the method: as §3

[14] = test system: ivyleaf morningglory (Ipomoea hederacea, IPOHE); test: Pre-emerge test, greenhouse herbicide activity screening; details: pre-emerge, 14 days after application, scale 0-100
Summary of the method: as §1

[15] = test system: sicklepod (Cassia obtusifolia, CASOB); test: as above; details: pre-emerge, 14 days after application, scale 0-100
Summary of the method: as §1

[16] = test system: large crabgrass (Digitaria sanguinalis, DIGSA); test: as above; details: pre-emerge, 14 days after application, scale 0-100
Summary of the method: as §1

[17] = test system: barnyardgrass (Echinochloa crus-galli, ECHCG); test: as above; details: pre-emerge, 14 days after application, scale 0-100
Summary of the method: as §1

[18] = test system: green foxtail (Setaria viridis, SETVI); test: as above; details: pre-emerge, 14 days after application, scale 0-100
Summary of the method: as §1

[19] = test system: johnsongrass (Sorghum halepense, SORHA); test: as above; details: pre-emerge, 14 days after application, scale 0-100
Summary of the method: as §1

[20] = test system: velvetleaf (Abutilon theophrasti, ABUTH); test: as above; details: pre-emerge, 14 days after application, scale 0-100
Summary of the method: as §1

[21] = test system: lambsquarters (Chenopodium album, CHEAL); test: as above; details: pre-emerge, 14 days after application, scale 0-100
Summary of the method: as §1

[22] = test system: redroot pigweed (Amaranthus retroflexus, AMARE); test: as above; details: pre-emerge, 14 days after application, scale 0-100
Summary of the method: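 Rating: 0–100 visual injury, 14 DAA. Application: acetone, 187 l/ha, 15–1000 g ai/ha, flat-fan track sprayer with nozzle 40–45 cm above soil or canopy. Post-emerge runs used 0.25% v/v surfactant on 2–3 leaf plants.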

SMILES: CCOC(=O)C(C)Oc1ccc(-n2c(=O)cc(C(F)(F)F)n(C)c2=O)c(NC(=O)c2ccc3ccccc3c2)c1 (stereo not shown) [2-146]
- RICE phytotoxicity rating (crop damage) ([1]; 63 g ai/ha): 10
- RICE phytotoxicity rating (crop damage) ([1]; 250 g ai/ha): 10
- CORN phytotoxicity rating (crop damage) ([2]; 63 g ai/ha): 10
- CORN phytotoxicity rating (crop damage) ([2]; 250 g ai/ha): 5
- IPOHE phytotoxicity rating ([3]; 63 g ai/ha): 40
- IPOHE phytotoxicity rating ([3]; 250 g ai/ha): 50
- CASOB phytotoxicity rating ([4]; 63 g ai/ha): 20
- CASOB phytotoxicity rating ([4]; 250 g ai/ha): 50
- AMARE phytotoxicity rating ([5]; 63 g ai/ha): 30
- AMARE phytotoxicity rating ([5]; 250 g ai/ha): 30
- DIGSA phytotoxicity rating ([6]; 63 g ai/ha): 0
- DIGSA phytotoxicity rating ([6]; 250 g ai/ha): 0
- ECHCG phytotoxicity rating ([7]; 63 g ai/ha): 0
- ECHCG phytotoxicity rating ([7]; 250 g ai/ha): 0
- SETVI phytotoxicity rating ([8]; 63 g ai/ha): 0
- SETVI phytotoxicity rating ([8]; 250 g ai/ha): 0
- SORHA phytotoxicity rating ([9]; 63 g ai/ha): 0
- SORHA phytotoxicity rating ([9]; 250 g ai/ha): 0
- ABUTH phytotoxicity rating ([10]; 63 g ai/ha): 70
- ABUTH phytotoxicity rating ([10]; 250 g ai/ha): 75
- CHEAL phytotoxicity rating ([11]; 63 g ai/ha): 30
- CHEAL phytotoxicity rating ([11]; 250 g ai/ha): 40
- phytotoxicity rating RICE (crop damage) ([12]; 63 g ai/ha): 0
- phytotoxicity rating RICE (crop damage) ([12]; 250 g ai/ha): 0
- phytotoxicity rating CORN (crop damage) ([13]; 63 g ai/ha): 0
- phytotoxicity rating CORN (crop damage) ([13]; 250 g ai/ha): 0
- phytotoxicity rating IPOHE ([14]; 63 g ai/ha): 40
- phytotoxicity rating IPOHE ([14]; 250 g ai/ha): 20
- phytotoxicity rating CASOB ([15]; 63 g ai/ha): 20
- phytotoxicity rating CASOB ([15]; 250 g ai/ha): 0
- phytotoxicity rating DIGSA ([16]; 63 g ai/ha): 0
- phytotoxicity rating DIGSA ([16]; 250 g ai/ha): 0
- phytotoxicity rating ECHCG ([17]; 63 g ai/ha): 0
- phytotoxicity rating ECHCG ([17]; 250 g ai/ha): 0
- phytotoxicity rating SETVI ([18]; 63 g ai/ha): 0
- phytotoxicity rating SETVI ([18]; 250 g ai/ha): 0
- phytotoxicity rating SORHA ([19]; 63 g ai/ha): 0
- phytotoxicity rating SORHA ([19]; 250 g ai/ha): 0
- phytotoxicity rating ABUTH ([20]; 63 g ai/ha): 70
- phytotoxicity rating ABUTH ([20]; 250 g ai/ha): 10
- phytotoxicity rating CHEAL ([21]; 63 g ai/ha): 90
- phytotoxicity rating CHEAL ([21]; 250 g ai/ha): 100
- phytotoxicity rating AMARE ([22]; 63 g ai/ha): 30
- phytotoxicity rating AMARE ([22]; 250 g ai/ha): 80

SMILES: COc1cc2ccccc2cc1C(=O)Nc1c(OC)c(Cl)cc(F)c1-n1c(=O)cc(C(F)(F)F)n(C)c1=O [2-152]
- RICE phytotoxicity rating (crop damage) ([1]; 63 g ai/ha): 40
- RICE phytotoxicity rating (crop damage) ([1]; 250 g ai/ha): 65
- CORN phytotoxicity rating (crop damage) ([2]; 63 g ai/ha): 15
- CORN phytotoxicity rating (crop damage) ([2]; 250 g ai/ha): 30
- IPOHE phytotoxicity rating ([3]; 63 g ai/ha): 100
- IPOHE phytotoxicity rating ([3]; 250 g ai/ha): 100
- CASOB phytotoxicity rating ([4]; 63 g ai/ha): 100
- CASOB phytotoxicity rating ([4]; 250 g ai/ha): 100
- AMARE phytotoxicity rating ([5]; 63 g ai/ha): 100
- AMARE phytotoxicity rating ([5]; 250 g ai/ha): 100
- DIGSA phytotoxicity rating ([6]; 63 g ai/ha): 20
- DIGSA phytotoxicity rating ([6]; 250 g ai/ha): 30
- ECHCG phytotoxicity rating ([7]; 63 g ai/ha): 30
- ECHCG phytotoxicity rating ([7]; 250 g ai/ha): 50
- SETVI phytotoxicity rating ([8]; 63 g ai/ha): 30
- SETVI phytotoxicity rating ([8]; 250 g ai/ha): 50
- SORHA phytotoxicity rating ([9]; 63 g ai/ha): 20
- SORHA phytotoxicity rating ([9]; 250 g ai/ha): 40
- ABUTH phytotoxicity rating ([10]; 63 g ai/ha): 100
- ABUTH phytotoxicity rating ([10]; 250 g ai/ha): 100
- CHEAL phytotoxicity rating ([11]; 63 g ai/ha): 98
- CHEAL phytotoxicity rating ([11]; 250 g ai/ha): 100
- phytotoxicity rating RICE (crop damage) ([12]; 63 g ai/ha): 0
- phytotoxicity rating RICE (crop damage) ([12]; 250 g ai/ha): 30
- phytotoxicity rating CORN (crop damage) ([13]; 63 g ai/ha): 0
- phytotoxicity rating CORN (crop damage) ([13]; 250 g ai/ha): 0
- phytotoxicity rating IPOHE ([14]; 63 g ai/ha): 0
- phytotoxicity rating IPOHE ([14]; 250 g ai/ha): 0
- phytotoxicity rating CASOB ([15]; 63 g ai/ha): 0
- phytotoxicity rating CASOB ([15]; 250 g ai/ha): 50
- phytotoxicity rating DIGSA ([16]; 63 g ai/ha): 50
- phytotoxicity rating DIGSA ([16]; 250 g ai/ha): 80
- phytotoxicity rating ECHCG ([17]; 63 g ai/ha): 10
- phytotoxicity rating ECHCG ([17]; 250 g ai/ha): 70
- phytotoxicity rating SETVI ([18]; 63 g ai/ha): 30
- phytotoxicity rating SETVI ([18]; 250 g ai/ha): 70
- phytotoxicity rating SORHA ([19]; 63 g ai/ha): 0
- phytotoxicity rating SORHA ([19]; 250 g ai/ha): 30
- phytotoxicity rating ABUTH ([20]; 63 g ai/ha): 60
- phytotoxicity rating ABUTH ([20]; 250 g ai/ha): 90
- phytotoxicity rating CHEAL ([21]; 63 g ai/ha): 95
- phytotoxicity rating CHEAL ([21]; 250 g ai/ha): 100
- phytotoxicity rating AMARE ([22]; 63 g ai/ha): 100
- phytotoxicity rating AMARE ([22]; 250 g ai/ha): 100
